This note sets out measurements from ChEMBL document CHEMBL1150266, “Design and synthesis of conformationally constrained glucagon-like peptide-1 derivatives with increased plasma stability and prolonged in vivo activity” (J Med Chem, 2008).

Data set [1] can be described thus: (§1) Stability in human plasma at 1000 ng/mL at 37 degC. In kind it is ADME, cell-free.
Data set [2] in a line: Stability in human plasma at 1000 ng/mL at 37 degC after 5 hrs. In kind it is ADME, cell-free. To be noted: read-out: Stability.
In data set [3] the target is T1, Glucagon-like peptide 1 receptor (Homo sapiens, UniProt P43220). The experiment in a line: Displacement of [125I]GLP1 from human GLP1R expressed in CHOK1 cells. The format is cell-based, CHO-K1. A general note: In a radioligand displacement assay an active substance lowers the binding of a labelled ligand.
Data set [4] concerns the target T1, Glucagon-like peptide 1 receptor. The experiment in a line: Agonist activity at human GLP1R expressed in CHO cells assessed as increase in cAMP level by cAMP-response element/luciferase activation assay. In kind it is functional, cell-based. In general terms: Changes in cAMP serve as a functional read-out for many G protein-coupled receptors.
For data set [5], the system named is Plasma. The description is as §1. The format is ADME, cell-free.

For orientation: half-life means how long it takes for the measured level to halve. Read a high half-life as slow decline. For orientation: IC50 means the midpoint of a concentration-inhibition curve. For orientation: EC50 means the concentration needed to bring the measured effect to its halfway point.

T1 sequence (P43220 whole entry): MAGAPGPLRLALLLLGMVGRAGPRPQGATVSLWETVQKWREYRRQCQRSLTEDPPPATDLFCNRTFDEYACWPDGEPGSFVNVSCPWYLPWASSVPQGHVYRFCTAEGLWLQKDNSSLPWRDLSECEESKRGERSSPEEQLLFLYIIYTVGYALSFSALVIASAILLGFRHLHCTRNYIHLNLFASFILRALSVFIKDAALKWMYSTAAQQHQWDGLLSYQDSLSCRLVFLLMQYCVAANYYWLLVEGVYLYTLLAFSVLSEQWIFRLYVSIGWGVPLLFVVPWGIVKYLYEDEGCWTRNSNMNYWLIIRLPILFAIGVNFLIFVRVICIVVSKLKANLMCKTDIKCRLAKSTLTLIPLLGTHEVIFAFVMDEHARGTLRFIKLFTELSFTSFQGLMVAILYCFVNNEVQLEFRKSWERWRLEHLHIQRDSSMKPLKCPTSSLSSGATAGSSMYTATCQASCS

For the compound `CC[C@H](C)[C@H](NC(=O)[C@H](Cc1ccccc1)NC(=O)[C@H](CCC(=O)O)NC(=O)[C@H](CCCCN)NC(=O)[C@H](C)NC(=O)[C@H](C)NC(=O)[C@H](CCC(N)=O)NC(=O)CNC(=O)[C@H](CCC(=O)O)NC(=O)[C@H](CC(C)C)NC(=O)[C@H](Cc1ccc(O)cc1)NC(=O)[C@H](CO)NC(=O)[C@H](CO)NC(=O)[C@@H](NC(=O)[C@H](CC(=O)O)NC(=O)[C@H](CO)NC(=O)[C@@H](NC(=O)[C@H](Cc1ccccc1)NC(=O)[C@@H](NC(=O)CNC(=O)[C@H](CCC(=O)O)NC(=O)[C@H](C)NC(=O)[C@@H](N)Cc1cnc[nH]1)[C@@H](C)O)[C@@H](C)O)C(C)C)C(=O)N[C@@H](C)C(=O)N[C@@H](Cc1c[nH]c2ccccc12)C(=O)N[C@@H](CC(C)C)C(=O)N[C@H](C(=O)N[C@@H](CCCCN)C(=O)NCC(=O)N[C@@H](CCCNC(=N)N)C(=O)NCC(N)=O)C(C)C`, the half-life at 1000 ng/mL in data set [1] is 0.5 h.

As to `CC[C@H](C)[C@H](NC(=O)[C@H](Cc1ccccc1)NC(=O)[C@H](CCC(=O)O)NC(=O)[C@@H]1CCCCNC(=O)CC[C@H](NC(=O)[C@H](CCC(=O)O)NC(=O)[C@H](CC(C)C)NC(=O)[C@H](Cc2ccc(O)cc2)NC(=O)[C@H](CO)NC(=O)[C@H](CO)NC(=O)[C@@H](NC(=O)[C@H](CC(=O)O)NC(=O)[C@H](CO)NC(=O)[C@@H](NC(=O)[C@H](Cc2ccccc2)NC(=O)[C@@H](NC(=O)CNC(=O)[C@H](CCC(=O)O)NC(=O)CNC(=O)[C@@H](N)Cc2c[nH]cn2)[C@@H](C)O)[C@@H](C)O)C(C)C)C(=O)N[C@@H](CCC(N)=O)C(=O)N[C@@H](C)C(=O)N[C@@H](C)C(=O)N1)C(=O)N[C@@H](C)C(=O)N[C@@H](Cc1c[nH]c2ccccc12)C(=O)N[C@@H](CC(C)C)C(=O)N[C@H](C(=O)N[C@@H](CCCCN)C(=O)NCC(=O)N[C@@H](CCCNC(=N)N)C(=O)NCC(N)=O)C(C)C`, in data set [2], the remaining at 5 h, 1000 ng/mL is 75%. The compound further yielded an IC50 in data set [3] of 2.1 nM. In data set [4], the EC50 was determined as 0.01 nM. For the same compound, the Stability result in data set [5] is “Stable”.

In data set [1], `CC[C@H](C)[C@H](NC(=O)[C@H](Cc1ccccc1)NC(=O)[C@H](CCC(=O)O)NC(=O)[C@H](CCCCN)NC(=O)[C@H](C)NC(=O)[C@H](C)NC(=O)[C@H](CCC(N)=O)NC(=O)CNC(=O)[C@H](CCC(=O)O)NC(=O)[C@H](CC(C)C)NC(=O)[C@H](Cc1ccc(O)cc1)NC(=O)[C@H](CO)NC(=O)[C@H](CO)NC(=O)[C@@H](NC(=O)[C@H](CC(=O)O)NC(=O)[C@H](CO)NC(=O)[C@@H](NC(=O)[C@H](Cc1ccccc1)NC(=O)[C@@H](NC(=O)CNC(=O)[C@H](CCC(=O)O)NC(=O)CNC(=O)[C@@H](N)Cc1cnc[nH]1)[C@@H](C)O)[C@@H](C)O)C(C)C)C(=O)N[C@@H](C)C(=O)N[C@@H](Cc1c[nH]c2ccccc12)C(=O)N[C@@H](CC(C)C)C(=O)N[C@H](C(=O)N[C@@H](CCCCN)C(=O)NCC(=O)N[C@@H](CCCNC(=N)N)C(=O)NCC(=O)O)C(C)C` gave a half-life at 1000 ng/mL of 5 h.
